{
  "source": "patent US20150064234A1",
  "about": "“4-AMINOPYRIDINE AS A THERAPEUTIC AGENT FOR SPINAL MUSCULAR ATROPHY” (THE TRUSTEES OF COLUMBIA UNIVERSITY IN THE CITY OF NEW YORK, priority 2012, published 2015)",
  "key": {"[1]": {"tested_on": "Drosophila smn mutants", "assay": "Rescue of Drosophila smn mutant phenotypes by K+ channel antagonists", "conditions": "treatment with K+ channel antagonist; 4-(dimethylamino)pyridine data not shown"}, "[2]": {"tested_on": "Canton S (CS) control larvae"}, "[3]": {"tested_on": "canine hereditary motor neuron disease", "conditions": "canine hereditary motor neuron disease (Pinter et al., 1997); cited from earlier work"}, "[4]": {"tested_on": "smn^x7/smn^x7 mutant larvae", "assay": "NMJ electrophysiology (eEPSP), smn mutant larvae", "type": "in vivo, Drosophila"}, "[5]": {"tested_on": "Shaker channels", "conditions": "at concentration of 1 mM; cited from earlier work"}, "[6]": {"tested_on": "smn^x7/smn^x7 mutant larvae", "assay": "Spontaneous motor rhythm recording, smn mutant larvae", "type": "in vivo, Drosophila"}, "[7]": {"tested_on": "Canton S (CS) control larvae", "remark": "listed apart in the source"}, "[8]": {"tested_on": "Canton S (CS) control larvae", "remark": "listed apart in the source"}, "[9]": {"tested_on": "other sodium, calcium, and potassium conductances", "conditions": "at concentration of 1 mM; cited from earlier work"}, "[10]": {"tested_on": "MS patients", "conditions": "cited from earlier work"}, "[11]": {"tested_on": "smn^x7/smn^x7 mutant larvae", "assay": "Muscle area measurement, smn mutant larvae cultured on 4-AP"}, "[12]": {"tested_on": "smn^x7/smn^x7 mutant larvae", "assay": "Larval locomotion assay, smn mutant larvae", "type": "in vivo, Drosophila"}, "[13]": {"tested_on": "Canton S (CS) control larvae", "assay": "Muscle area measurement, control larvae cultured on 4-AP"}, "[14]": {"tested_on": "wild-type larvae", "assay": "Titration of 4-AP in larval media for tolerability"}, "[15]": {"tested_on": "tetrodotoxin toxicity", "conditions": "in vivo; cited from earlier work"}, "[16]": {"conditions": "CS control larvae treated with 2 mM 4-AP, ± SEM"}, "[17]": {"conditions": "smn mutants, 2 mM 4-AP, compared with 4-AP treated controls"}, "[18]": {"conditions": "smn^x7/smn^x7 larvae treated with 2 mM 4-AP, ± SEM"}, "[19]": {"conditions": "control animals, 2 mM 4-AP, P<0.01"}},
  "note": "Entries after “also recorded” stand apart in the source; their conditions may differ.",
  "data": [
    {"smiles": "CN(C)c1ccncc1", "note": "[4-(dimethylamino) pyridine]", "values": [
      {"measurement": "effect on Drosophila smn mutant phenotypes", "setting": "[1]", "value": "rescued"}
    ]},
    {"smiles": "Nc1ccncc1", "note": "[4-AP, 4-aminopyridine]", "values": [
      {"measurement": "eEPSP amplitude", "setting": "[2]; [16]", "value": "26.67 ± 2.91", "unit": "mV"},
      {"measurement": "reduction of NMJ eEPSP amplitudes", "setting": "[2]; control animals, 2 mM 4-AP, P<0.001", "value": 21, "unit": "%"},
      {"measurement": "effect on muscle twitch tension", "setting": "[3]", "value": "can improve"},
      {"measurement": "reduction of increased NMJ EPSP amplitude", "setting": "[4]; smn mutants treated with 2 mM 4-AP, P<0.001", "value": 27, "unit": "%"},
      {"measurement": "effect on NMJ neurotransmitter release / eEPSP amplitude", "setting": "[4]; [17]", "value": "corrects; also recorded: fully corrected"},
      {"measurement": "eEPSP amplitude", "setting": "[4]; [18]", "value": "32.40 ± 2.48", "unit": "mV"},
      {"measurement": "effect on Drosophila smn mutant phenotypes", "setting": "[1]", "value": "positively benefitted; also recorded: rescued"},
      {"measurement": "inhibition of Shaker channels", "setting": "[5]", "value": "selectively and reversibly inhibits"},
      {"measurement": "remaining increase in inter-spike interval above controls treated with 4-AP", "setting": "[6]; smn mutants grown on 2 mM 4-AP media, p<0.001", "value": 31, "unit": "%"},
      {"measurement": "effect on defects in motor rhythm", "setting": "[6]; smn mutants, 2 mM 4-AP", "value": "substantially improved; also recorded: substantially corrects; also recorded: fully corrected"},
      {"measurement": "Inter-spike interval", "setting": "[6]; [18]", "value": "89.98 ± 4.98", "unit": "ms"},
      {"measurement": "Inter-spike interval", "setting": "[7]; [16]", "value": "68.89 ± 4.23", "unit": "ms"},
      {"measurement": "effect on motor rhythm", "setting": "[7]; control animals, 2 mM 4-AP", "value": "inhibits"},
      {"measurement": "decrease of rhythmic motor activity", "setting": "[7]; [19]", "value": 40, "unit": "%"},
      {"measurement": "Locomotion", "setting": "[8]; [16]", "value": "3.06 ± 0.40", "unit": "cm/min"},
      {"measurement": "reduction of larval locomotion", "setting": "[8]; [19]", "value": 35, "unit": "%"},
      {"measurement": "effect on other sodium, calcium, and potassium conductances", "setting": "[9]", "value": "without significant effect"},
      {"measurement": "patients with clinically important motor and visual improvements", "setting": "[10]; 17 temperature-sensitive MS patients, 7.5 to 52.5 mg in one to three daily doses, 1 to 5 days, thirteen of 17", "value": 76, "unit": "%"},
      {"measurement": "side effects", "setting": "[10]; 17 temperature-sensitive MS patients, 7.5 to 52.5 mg", "value": "No serious side effects"},
      {"measurement": "mean duration of improvements for two consecutive doses", "setting": "[10]; average 8.53-hour treatment-observation period", "value": 7.07, "unit": "h"},
      {"measurement": "initial responders with long-term benefits", "setting": "[10]; long-term study (32 months)", "value": "80-90%"},
      {"measurement": "duration of improvements as share of treatment-observation period", "setting": "[10]; two consecutive doses, average 8.53-hour period", "value": 83, "unit": "%"},
      {"measurement": "increase of muscle surface area compared to untreated smn mutants", "setting": "[11]; smn mutants grown on 2 mM 4-AP media, P<0.001", "value": 66, "unit": "%"},
      {"measurement": "effect on muscle size", "setting": "[11]; smn mutants, 2 mM 4-AP", "value": "increases; also recorded: significantly increased"},
      {"measurement": "Muscle 6 area", "setting": "[11]; smn^x7/smn^x7 larvae treated with 2 mM 4-AP throughout larval period, ± SEM", "value": "29.60 ± 3.09 ×10^3 × μm^2"},
      {"measurement": "increase of locomotion", "setting": "[12]; smn mutants grown on 2 mM 4-AP media, P<0.05", "value": 55, "unit": "%"},
      {"measurement": "effect on locomotion", "setting": "[12]; [17]", "value": "corrects; also recorded: significantly increased"},
      {"measurement": "Locomotion", "setting": "[12]; [18]", "value": "2.65 ± 0.10", "unit": "cm/min"},
      {"measurement": "Muscle 6 area", "setting": "[13]; CS control larvae treated with 2 mM 4-AP throughout larval period, ± SEM", "value": "38.08 ± 3.49 ×10^3 × μm^2"},
      {"measurement": "effect on muscle size", "setting": "[13]; control / wild-type animals, 2 mM 4-AP", "value": "no effect; also recorded: does not alter; also recorded: did not affect"},
      {"measurement": "maximum dosage tolerated without lethality", "setting": "[14]; added to larval media, wild-type larvae", "value": 2, "unit": "mM"},
      {"measurement": "toxicity at maximum tolerated dose", "setting": "[14]; control animals, 2 mM throughout larval period", "value": "mild systemic toxicity"},
      {"measurement": "effect on tetrodotoxin toxicity", "setting": "[15]", "value": "reverse tetrodotoxin toxicity"}
    ]}
  ]
}
